Source: ChEMBL document CHEMBL1909046, “DrugMatrix in vitro pharmacology data”

What was measured:
[1] = biological target: Platelet-activating factor receptor (Homo sapiens, UniProt P25105); format: tissue-based; also: in other assays of this panel Not Active means under 50% inhibition at 10 µM
[2] = biological target: C-C chemokine receptor type 2 (Homo sapiens, UniProt P41597); format: cell membranes, Membrane; conditions: cho-k1; also: in other assays of this panel Not Active means under 50% inhibition at 10 µM
[3] = DRUGMATRIX: Glutamate, NMDA, Agonism radioligand binding (ligand: [3H] CGP-39653); format: cell membranes, Rattus norvegicus, Wistar, Cerebral cortex, Membrane; conditions: Not Active = under 50% inhibition at 10 µM
[4] = biological target: T1, Neutrophil elastase (Homo sapiens, UniProt P08246); format: tissue-based;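 also: inhibition of neutrophil elastase enzyme activity, measured with a p-nitroanilide-linked peptide substrate; in other assays of this panel Not Active means under 50% inhibition at 10 µM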
T1 sequence (P08246 whole entry): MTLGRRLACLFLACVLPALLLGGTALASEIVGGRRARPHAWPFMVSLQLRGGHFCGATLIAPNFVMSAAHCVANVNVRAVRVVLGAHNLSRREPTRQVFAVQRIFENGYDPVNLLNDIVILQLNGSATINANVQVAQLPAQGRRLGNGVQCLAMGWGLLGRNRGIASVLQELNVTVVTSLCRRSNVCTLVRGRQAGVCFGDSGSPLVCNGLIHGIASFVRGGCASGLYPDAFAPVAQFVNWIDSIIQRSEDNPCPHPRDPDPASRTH

[5] = biological target: T2, Androgen receptor (Rattus norvegicus, UniProt P15207); also: in other assays of this panel Not Active means under 50% inhibition at 10 µM
T2 sequence (P15207 whole entry): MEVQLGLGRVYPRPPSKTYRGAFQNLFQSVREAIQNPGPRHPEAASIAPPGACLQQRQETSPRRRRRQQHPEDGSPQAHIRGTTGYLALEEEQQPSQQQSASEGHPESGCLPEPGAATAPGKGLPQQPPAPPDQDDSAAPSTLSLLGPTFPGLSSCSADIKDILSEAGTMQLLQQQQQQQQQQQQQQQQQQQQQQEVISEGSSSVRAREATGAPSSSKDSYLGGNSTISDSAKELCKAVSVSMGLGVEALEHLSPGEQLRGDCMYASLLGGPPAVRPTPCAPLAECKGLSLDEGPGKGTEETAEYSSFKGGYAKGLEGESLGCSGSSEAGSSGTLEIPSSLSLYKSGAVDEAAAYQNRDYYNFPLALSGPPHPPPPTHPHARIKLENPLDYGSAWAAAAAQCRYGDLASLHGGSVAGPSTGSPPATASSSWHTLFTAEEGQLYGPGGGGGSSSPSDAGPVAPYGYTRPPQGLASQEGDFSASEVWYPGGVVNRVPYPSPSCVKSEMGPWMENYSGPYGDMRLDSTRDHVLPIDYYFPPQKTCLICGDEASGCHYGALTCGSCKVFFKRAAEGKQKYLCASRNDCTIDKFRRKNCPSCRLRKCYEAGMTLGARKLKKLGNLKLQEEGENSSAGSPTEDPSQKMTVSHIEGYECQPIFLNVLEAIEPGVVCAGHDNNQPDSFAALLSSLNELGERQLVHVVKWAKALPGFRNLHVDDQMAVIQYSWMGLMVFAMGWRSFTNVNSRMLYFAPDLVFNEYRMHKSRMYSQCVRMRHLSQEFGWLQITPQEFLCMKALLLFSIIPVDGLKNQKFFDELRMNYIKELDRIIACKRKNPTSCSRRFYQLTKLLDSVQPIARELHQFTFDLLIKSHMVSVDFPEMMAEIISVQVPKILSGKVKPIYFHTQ

[6] = biological target: T3, Glucocorticoid receptor (Homo sapiens, UniProt P04150); test: biochemical; also: in other assays of this panel Not Active means under 50% inhibition at 10 µM
T3 sequence (P04150 whole entry): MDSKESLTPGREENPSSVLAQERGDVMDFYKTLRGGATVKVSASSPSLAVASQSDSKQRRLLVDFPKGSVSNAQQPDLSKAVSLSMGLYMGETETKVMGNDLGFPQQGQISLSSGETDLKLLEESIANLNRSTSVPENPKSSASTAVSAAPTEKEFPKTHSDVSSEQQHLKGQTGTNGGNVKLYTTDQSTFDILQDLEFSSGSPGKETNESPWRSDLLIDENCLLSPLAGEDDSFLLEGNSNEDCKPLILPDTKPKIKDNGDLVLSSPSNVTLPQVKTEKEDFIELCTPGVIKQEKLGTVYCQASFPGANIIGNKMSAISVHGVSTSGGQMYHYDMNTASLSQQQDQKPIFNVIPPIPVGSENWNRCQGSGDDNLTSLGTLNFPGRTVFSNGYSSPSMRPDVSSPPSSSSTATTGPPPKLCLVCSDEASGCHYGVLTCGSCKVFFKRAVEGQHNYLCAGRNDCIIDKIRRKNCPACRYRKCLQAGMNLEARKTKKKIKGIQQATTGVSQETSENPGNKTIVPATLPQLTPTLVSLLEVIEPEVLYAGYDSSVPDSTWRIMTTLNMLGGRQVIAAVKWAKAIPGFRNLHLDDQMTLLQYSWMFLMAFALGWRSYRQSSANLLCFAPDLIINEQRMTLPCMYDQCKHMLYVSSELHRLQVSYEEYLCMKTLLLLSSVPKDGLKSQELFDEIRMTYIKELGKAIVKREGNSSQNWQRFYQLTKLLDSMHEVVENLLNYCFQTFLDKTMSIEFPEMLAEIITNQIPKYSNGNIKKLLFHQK

Sequence of Platelet-activating factor receptor (P25105 whole entry): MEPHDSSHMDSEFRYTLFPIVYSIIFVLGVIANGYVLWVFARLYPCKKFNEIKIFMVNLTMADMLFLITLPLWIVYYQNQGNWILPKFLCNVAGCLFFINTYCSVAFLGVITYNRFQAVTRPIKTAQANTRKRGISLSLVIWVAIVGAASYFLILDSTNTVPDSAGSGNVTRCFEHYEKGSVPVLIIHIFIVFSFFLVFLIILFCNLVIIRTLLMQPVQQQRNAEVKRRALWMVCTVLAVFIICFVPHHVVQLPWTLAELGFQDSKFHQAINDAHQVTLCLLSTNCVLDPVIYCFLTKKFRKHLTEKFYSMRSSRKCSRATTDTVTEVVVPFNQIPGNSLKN
Sequence of C-C chemokine receptor type 2 (P41597 whole entry): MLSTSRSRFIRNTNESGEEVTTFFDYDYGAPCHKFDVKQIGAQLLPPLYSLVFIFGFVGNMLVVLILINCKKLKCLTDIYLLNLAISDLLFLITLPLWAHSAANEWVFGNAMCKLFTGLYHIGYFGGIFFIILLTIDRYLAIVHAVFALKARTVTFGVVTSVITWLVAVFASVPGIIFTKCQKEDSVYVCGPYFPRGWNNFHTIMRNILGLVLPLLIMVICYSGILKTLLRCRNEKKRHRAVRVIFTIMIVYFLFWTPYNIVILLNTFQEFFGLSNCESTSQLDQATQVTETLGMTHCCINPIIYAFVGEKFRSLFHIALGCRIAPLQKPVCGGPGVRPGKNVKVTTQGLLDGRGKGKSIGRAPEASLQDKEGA

Compound	IC50 [1]	IC50 [2]	IC50 [3]	Ki [3]	IC50 [4]	IC50 [5]	IC50 [6]	Ki [6]	Ki [1]	Ki [2]	Ki [4]	Ki [5]
CCOc1nc2cccc(C(=O)O)c2n1Cc1ccc(-c2ccccc2-c2nnn[nH]2)cc1	Not Active	Not Active	Not Active	Not Active	Not Active	Not Active						
O=C(O)CCCc1cccs1	Not Active	Not Active	Not Active	Not Active	Not Active	Not Active						
NC(=O)c1cccc(N)c1 [3-AMINOBENZAMIDE]	Not Active	Not Active	Not Active	Not Active	Not Active	Not Active						
CC(=O)Oc1ccccc1C(=O)O [ASPIRIN]	Not Active	Not Active	Not Active	Not Active	Not Active	Not Active						
CC(=O)OC[C@H]1O[C@@H](n2ncc(=O)[nH]c2=O)[C@H](OC(C)=O)[C@@H]1OC(C)=O [AZARIBINE]	Not Active	Not Active	Not Active	Not Active	Not Active	Not Active						
COc1cc(OC)c(C(=O)CCCN2CCCC2)c(OC)c1 [BUFLOMEDIL]	Not Active	Not Active	Not Active	Not Active	Not Active	Not Active						
CNC1=Nc2ccc(Cl)cc2C(c2ccccc2)=[N+]([O-])C1 [CHLORDIAZEPOXIDE]	Not Active	Not Active	Not Active	Not Active	Not Active	Not Active						
CC(C)NCC(O)c1ccccc1Cl (stereo not drawn) [CLORPRENALINE]	Not Active	Not Active	Not Active	Not Active	Not Active	Not Active						
C[C@]12CC[C@@H]3c4ccc(O)cc4CC[C@H]3[C@@H]1C[C@@H](O)[C@@H]2O [ESTRIOL]	Not Active	Not Active	Not Active	Not Active	Not Active		39.3 µM	17.9 µM				
C#C[C@]1(O)CC[C@H]2[C@@H]3CCC4=CC(=O)CC[C@]4(C)[C@H]3CC[C@@]21C [ETHISTERONE]	Not Active	Not Active	Not Active	Not Active	Not Active		0.209 µM	0.095 µM				
COC(=O)Nc1nc2cc(C(=O)c3ccc(F)cc3)ccc2[nH]1 [FLUBENDAZOLE]	Not Active	Not Active	Not Active	Not Active	Not Active	Not Active						
CC(=O)OCC(=O)[C@@]1(O)CC[C@H]2[C@@H]3CCC4=CC(=O)CC[C@]4(C)[C@@]3(F)[C@@H](O)C[C@@]21C [FLUDROCORTISONE ACETATE]	Not Active	Not Active	Not Active	Not Active	Not Active	Not Active						
CCOC(=O)c1ncn2c1CN(C)C(=O)c1cc(F)ccc1-2 [FLUMAZENIL]	Not Active	Not Active	Not Active	Not Active	Not Active	Not Active						
CC(=O)OCC(=O)[C@@]12OC(C)(C)O[C@@H]1C[C@H]1[C@@H]3C[C@H](F)C4=CC(=O)C=C[C@]4(C)[C@@]3(F)[C@@H](O)C[C@@]12C [FLUOCINONIDE]	Not Active	Not Active	Not Active	Not Active	Not Active		0.00526 µM	0.00239 µM				
Cc1ccc(C)c(OCCCC(C)(C)C(=O)O)c1 [GEMFIBROZIL]	Not Active	Not Active	Not Active	Not Active	Not Active	Not Active						
O=c1c(-c2ccc(O)cc2)coc2cc(O)cc(O)c12 [GENISTEIN]	Not Active	Not Active	Not Active	Not Active	Not Active	Not Active						
CCC1=C(C)CN(C(=O)NCCc2ccc(S(=O)(=O)NC(=O)N[C@H]3CC[C@H](C)CC3)cc2)C1=O [GLIMEPIRIDE]	Not Active	Not Active	Not Active	Not Active	Not Active	Not Active						
Nc1cc(-c2ccncc2)c[nH]c1=O [INAMRINONE]	Not Active	Not Active	Not Active	Not Active	Not Active	Not Active						
N[C@@H](Cn1ccc(=O)c(O)c1)C(=O)O [L-MIMOSINE]	Not Active	Not Active	Not Active	Not Active	Not Active	Not Active						
CN1C(=O)CN=C(c2ccccc2)c2cc([N+](=O)[O-])ccc21 [NIMETAZEPAM]	Not Active	Not Active	Not Active	Not Active	Not Active	Not Active						
C[C@@H]1O[C@@H](O[C@H]2C[C@@H](O)[C@]3(CO)[C@H]4[C@H](O)C[C@]5(C)[C@@H](C6=CC(=O)OC6)CC[C@]5(O)[C@@H]4CC[C@]3(O)C2)[C@H](O)[C@H](O)[C@H]1O [OUABAIN]	Not Active	Not Active	Not Active	Not Active	Not Active	Not Active						
CCN(CC)CCCC(C)Nc1c2ccc(Cl)cc2nc2ccc(OC)cc12 (stereo not drawn) [QUINACRINE]	Not Active	Not Active	Not Active	Not Active	Not Active	Not Active						
C[C@]12C=CC(=O)C=C1CC[C@H]1[C@@H]3C[C@@H](O)[C@](O)(C(=O)CO)[C@@]3(C)C[C@H](O)[C@@]12F [TRIAMCINOLONE]	Not Active	Not Active	Not Active	Not Active	Not Active		0.058 µM	0.026 µM				
CC[C@]1(O)C[C@@H]2CN(CCc3c([nH]c4ccccc34)[C@@](C(=O)OC)(c3cc4c(cc3OC)N(C)[C@H]3[C@@](O)(C(N)=O)[C@H](O)[C@]5(CC)C=CCN6CC[C@]43[C@@H]65)C2)C1 [VINDESINE]	Not Active	Not Active	Not Active	Not Active	Not Active	Not Active						
COBALTOUS CHLORIDE	Not Active	Not Active	Not Active	Not Active	Not Active	Not Active			Not Active	Not Active	Not Active	Not Active
COLISTIN	Not Active	Not Active	Not Active	Not Active	Not Active	Not Active			Not Active	Not Active	Not Active	Not Active
